From ChEMBL document CHEMBL1201862, “PubChem BioAssay data set” (2004)
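Cultured in 96-well plates, cells were exposed to test compound for 48 hours across five concentrations. Here, GI50 denotes the concentration required for 50% inhibition of growth.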 Activity calls are given as the source filed them. Rule as the data show it: active = GI50 up to about 1.1 µM and inactive = higher.

Tests used:
Test in all cases: DTP human tumour cell line panel, 48 h
786-0 = system: 786-0
A498 = system: A498
A549 = system: A549
ACHN = system: ACHN
CAKI-1 = system: CAKI-1
CCRF-CEM = system: CCRF-CEM
COLO 205 = system: COLO 205
DU-145 = system: DU-145
EKVX = system: EKVX
HCC 2998 = system: HCC 2998
HCT-116 = system: HCT-116
HCT-15 = system: HCT-15
HL-60 = system: HL-60
HOP-62 = system: HOP-62
HT-29 = system: HT-29
Hs-578T = system: Hs-578T
K562 = system: K562
KM12 = system: KM12
LOX IMVI = system: LOX IMVI
M14 = system: M14
MCF7 = system: MCF7
MDA-MB-231 = system: MDA-MB-231
MDA-MB-435 = system: MDA-MB-435
MDA-N = system: MDA-N
MOLT-4 = system: MOLT-4
Malme-3M = system: Malme-3M
NCI-H226 = system: NCI-H226
NCI-H23 = system: NCI-H23
NCI-H460 = system: NCI-H460
NCI/ADR-RES = system: NCI/ADR-RES
OVCAR-3 = system: OVCAR-3
OVCAR-4 = system: OVCAR-4
OVCAR-5 = system: OVCAR-5
OVCAR-8 = system: OVCAR-8
PC-3 = system: PC-3
RPMI-8226 = system: RPMI-8226
SF-268 = system: SF-268
SF-295 = system: SF-295
SF-539 = system: SF-539
SK-MEL-28 = system: SK-MEL-28
SK-MEL-2 = system: SK-MEL-2
SK-MEL-5 = system: SK-MEL-5
SK-OV-3 = system: SK-OV-3
SN12C = system: SN12C
SNB-19 = system: SNB-19
SNB-75 = system: SNB-75
SR = system: SR
SW-620 = system: SW-620
T47D = system: T47D
TK-10 = system: TK-10
U-251 = system: U-251
UACC-257 = system: UACC-257
UACC-62 = system: UACC-62
UO-31 = system: UO-31
HOP-92 = system: HOP-92
IGROV-1 = system: IGROV-1
RXF 393 = system: RXF 393

Measured: GI50

COc1cc(Cn2c3c(c4c(CN(C)C)c(O)ccc42)C(=O)c2ccccc2C3=O)cc(OC)c1
inactive: 786-0 12.5 µM | A498 10.1 µM | A549 15.1 µM | ACHN 15.3 µM | CAKI-1 13 µM | CCRF-CEM 24.3 µM | COLO 205 25.5 µM | DU-145 21.7 µM | EKVX 20 µM | HCC 2998 17.9 µM | HCT-116 13.6 µM | HL-60 22.4 µM | HOP-62 15.7 µM | HT-29 26.9 µM | Hs-578T 19.1 µM | K562 14 µM | KM12 26.4 µM | LOX IMVI 16.6 µM | M14 17.2 µM | MCF7 15.9 µM | MDA-MB-231 17.7 µM | MDA-MB-435 18.1 µM | MDA-N 15.7 µM | MOLT-4 24.4 µM | Malme-3M 23.2 µM | NCI-H226 33.2 µM | NCI-H23 15.7 µM | NCI-H460 17.7 µM | NCI/ADR-RES 17.6 µM | OVCAR-3 24.2 µM | OVCAR-4 13.9 µM | OVCAR-5 21.7 µM | OVCAR-8 14.6 µM | PC-3 21 µM | RPMI-8226 18.5 µM | SF-268 14.8 µM | SF-295 21.5 µM | SF-539 16.3 µM | SK-MEL-28 15.8 µM | SK-MEL-2 16.3 µM | SK-MEL-5 11.9 µM | SK-OV-3 20.1 µM | SN12C 22.9 µM | SNB-19 18.7 µM | SR 10.3 µM | SW-620 18.7 µM | T47D 15.4 µM | TK-10 28.7 µM | U-251 14.8 µM | UACC-257 22.8 µM | UACC-62 23.1 µM | UO-31 14.6 µM
active: SNB-75 0.414 µM
14 µM: HCT-15

CCOC(=O)c1csc(NC(=O)C(C)N2CCOCC2)n1 (stereo not given)
inactive: A498 > 100 µM | A549 > 100 µM | ACHN > 100 µM | CAKI-1 > 100 µM | CCRF-CEM > 100 µM | COLO 205 > 100 µM | DU-145 > 100 µM | EKVX > 100 µM | HCC 2998 > 100 µM | HL-60 > 100 µM | HOP-62 > 100 µM | HOP-92 > 100 µM | HT-29 > 100 µM | IGROV-1 > 100 µM | K562 > 100 µM | KM12 > 100 µM | LOX IMVI > 100 µM | M14 > 100 µM | MCF7 > 100 µM | MDA-MB-231 > 100 µM | MDA-MB-435 > 100 µM | MDA-N > 100 µM | MOLT-4 > 100 µM | Malme-3M > 100 µM | NCI-H23 > 100 µM | NCI-H460 > 100 µM | NCI/ADR-RES > 100 µM | OVCAR-3 > 100 µM | OVCAR-4 > 100 µM | OVCAR-5 > 100 µM | OVCAR-8 > 100 µM | PC-3 > 100 µM | RPMI-8226 > 100 µM | RXF 393 > 100 µM | SF-295 > 100 µM | SF-539 > 100 µM | SK-MEL-28 > 100 µM | SK-MEL-2 > 100 µM | SK-MEL-5 > 100 µM | SK-OV-3 > 100 µM | SNB-19 > 100 µM | SNB-75 > 100 µM | SR > 100 µM | SW-620 > 100 µM | T47D > 100 µM | TK-10 > 100 µM | U-251 > 100 µM | UACC-257 > 100 µM | UACC-62 > 100 µM | UO-31 > 100 µM
> 100 µM: HCT-15
